PubChem BioAssay (NCI)
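How tested: cells in 96-well plates exposed to compound for 48 hours at five concentrations. GI50: concentration for 50% inhibition of growth. TGI marks complete inhibition of growth.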

Experiments:
Test in all cases: NCI anticancer screen, dose series, 48 h
[1] = tested on: 786-0 renal
[2] = tested on: A498 renal
[3] = tested on: A549 NSCLC
[4] = tested on: ACHN renal
[5] = tested on: BT-549 breast
[6] = tested on: CAKI-1 renal
[7] = tested on: CCRF-CEM leukemia
[8] = tested on: COLO 205 colon
[9] = tested on: DU-145 prostate
[10] = tested on: HCC-2998 colon
[11] = tested on: HCT-116 colon
[12] = tested on: HCT-15 colon
[13] = tested on: HL-60(TB) leukemia
[14] = tested on: HOP-62 NSCLC
[15] = tested on: HS 578T breast
[16] = tested on: HT29 colon
[17] = tested on: IGROV1 ovarian
[18] = tested on: K-562 leukemia
[19] = tested on: KM12 colon
[20] = tested on: LOX IMVI melanoma
[21] = tested on: M14 melanoma
[22] = tested on: MALME-3M melanoma
[23] = tested on: MCF7 breast
[24] = tested on: MDA-MB-231 breast
[25] = tested on: MDA-MB-435
[26] = tested on: MOLT-4 leukemia
[27] = tested on: NCI-H226 lung
[28] = tested on: NCI-H23 lung
[29] = tested on: NCI-H460 lung
[30] = tested on: NCI-H522 lung
[31] = tested on: NCI/ADR-RES ovarian
[32] = tested on: OVCAR-3 ovarian
[33] = tested on: OVCAR-4 ovarian
[34] = tested on: OVCAR-5 ovarian
[35] = tested on: OVCAR-8 ovarian
[36] = tested on: PC-3 prostate
[37] = tested on: RPMI-8226 leukemia
[38] = tested on: RXF 393 renal
[39] = tested on: SF-268 CNS
[40] = tested on: SF-539 CNS
[41] = tested on: SK-MEL-2 melanoma
[42] = tested on: SK-MEL-28 melanoma
[43] = tested on: SK-MEL-5 melanoma
[44] = tested on: SK-OV-3 ovarian
[45] = tested on: SN12C renal
[46] = tested on: SNB-19 CNS
[47] = tested on: SR leukemia
[48] = tested on: SW-620 colon
[49] = tested on: T-47D breast
[50] = tested on: TK-10 renal
[51] = tested on: U251 CNS
[52] = tested on: UACC-257 melanoma
[53] = tested on: UACC-62 melanoma
[54] = tested on: UO-31 renal
[55] = tested on: EKVX NSCLC
[56] = tested on: HOP-92 NSCLC
[57] = tested on: SF-295 CNS
[58] = tested on: SNB-75 CNS

CN(C)c1ccc(O)c2c1CC1CC3C(N(C)C)C(=O)C(C(N)=O)=C(O)C3(O)C(=O)C1=C2O (configuration not stated)
GI50 [1]: 11.5 µM | TGI [1]: 39.7 µM | GI50 [2]: 6.96 µM | TGI [2]: 35.9 µM | GI50 [3]: 9.43 µM | TGI [3]: 59.2 µM | GI50 [4]: 8.4 µM | TGI [4]: > 100 µM | GI50 [5]: 13.6 µM | TGI [5]: 45 µM | GI50 [6]: 5.74 µM | TGI [6]: 91.4 µM | GI50 [7]: 19.5 µM | TGI [7]: > 100 µM | GI50 [8]: 13.7 µM | TGI [8]: 27 µM | GI50 [9]: 13.1 µM | TGI [9]: 59.1 µM | GI50 [10]: 11.9 µM | TGI [10]: 39.1 µM | GI50 [11]: 11.6 µM | TGI [11]: > 100 µM | GI50 [12]: 5.59 µM | TGI [12]: > 100 µM | GI50 [13]: 12.7 µM | TGI [13]: 48.9 µM | GI50 [14]: 19.1 µM | TGI [14]: 62.9 µM | GI50 [15]: 14.4 µM | TGI [15]: 59.4 µM | GI50 [16]: 15.4 µM | TGI [16]: 42.9 µM | GI50 [17]: 5.78 µM | TGI [17]: 24.2 µM | GI50 [18]: 16.8 µM | TGI [18]: > 100 µM | GI50 [19]: 13.1 µM | TGI [19]: 32.2 µM | GI50 [20]: 6.21 µM | TGI [20]: 37.3 µM | GI50 [21]: 11.2 µM | TGI [21]: > 100 µM | GI50 [22]: 16.3 µM | TGI [22]: 41.7 µM | GI50 [23]: 20.2 µM | TGI [23]: > 100 µM | GI50 [24]: 19.1 µM | TGI [24]: 47 µM | GI50 [25]: 17.9 µM | TGI [25]: > 100 µM | GI50 [26]: 22.6 µM | TGI [26]: 74.1 µM | GI50 [27]: 20.6 µM | TGI [27]: > 100 µM | GI50 [28]: 15.2 µM | TGI [28]: 56 µM | GI50 [29]: 10.6 µM | TGI [29]: 29.6 µM | GI50 [30]: 13.6 µM | TGI [30]: 46 µM | GI50 [31]: 17.3 µM | TGI [31]: 73.6 µM | GI50 [32]: 12.8 µM | TGI [32]: 39 µM | GI50 [33]: 24.2 µM | TGI [33]: > 100 µM | GI50 [34]: 15.6 µM | TGI [34]: > 100 µM | GI50 [35]: 9.84 µM | TGI [35]: 81.7 µM | GI50 [36]: 12.6 µM | TGI [36]: 48.7 µM | GI50 [37]: 5.86 µM | TGI [37]: 26.8 µM | GI50 [38]: 4.84 µM | TGI [38]: 21.6 µM | GI50 [39]: 18.9 µM | TGI [39]: 92.3 µM | GI50 [40]: 14.6 µM | TGI [40]: 35.5 µM | GI50 [41]: 5.66 µM | TGI [41]: 22.9 µM | GI50 [42]: 22.1 µM | TGI [42]: 59.1 µM | GI50 [43]: 12 µM | TGI [43]: 28 µM | GI50 [44]: 14.6 µM | TGI [44]: 85.4 µM | GI50 [45]: 18.1 µM | TGI [45]: 89.9 µM | GI50 [46]: 18.8 µM | TGI [46]: > 100 µM | GI50 [47]: 15.7 µM | TGI [47]: > 100 µM | GI50 [48]: 15.3 µM | TGI [48]: > 100 µM | GI50 [49]: 27.7 µM | TGI [49]: > 100 µM | GI50 [50]: 5.66 µM | TGI [50]: 35.5 µM | GI50 [51]: 6.84 µM | TGI [51]: 31.6 µM | GI50 [52]: 17 µM | TGI [52]: 52.1 µM | GI50 [53]: 9.18 µM | TGI [53]: 22 µM | GI50 [54]: 7.47 µM | TGI [54]: 73 µM

O=C(NC1CCCCC1)NS(=O)(=O)c1ccc(-n2nc3c(c2-c2cccs2)Cc2ccccc2-3)cc1
GI50 [1]: 32.3 µM | TGI [1]: > 100 µM | GI50 [2]: 57.2 µM | TGI [2]: > 100 µM | GI50 [3]: 28 µM | TGI [3]: > 100 µM | GI50 [4]: 17.3 µM | TGI [4]: 33.6 µM | GI50 [5]: 33.7 µM | TGI [5]: 94.1 µM | GI50 [6]: 16 µM | TGI [6]: 44.4 µM | GI50 [7]: 1.15 µM | TGI [7]: 3.79 µM | GI50 [8]: 23.3 µM | TGI [8]: 51.1 µM | GI50 [9]: 31.9 µM | TGI [9]: > 100 µM | GI50 [55]: 28.6 µM | TGI [55]: 65.4 µM | GI50 [10]: 6.63 µM | TGI [10]: 24.1 µM | GI50 [11]: 31.7 µM | TGI [11]: > 100 µM | GI50 [12]: 17.8 µM | TGI [12]: 41 µM | GI50 [13]: 25 µM | TGI [13]: 48.8 µM | GI50 [14]: > 100 µM | TGI [14]: > 100 µM | GI50 [56]: 14.3 µM | TGI [56]: 29.6 µM | GI50 [15]: 37.5 µM | TGI [15]: > 100 µM | GI50 [16]: 34.3 µM | TGI [16]: > 100 µM | GI50 [17]: 4.12 µM | TGI [17]: 23 µM | GI50 [18]: 10 µM | TGI [18]: 35 µM | GI50 [19]: 34.9 µM | TGI [19]: > 100 µM | GI50 [20]: 5.66 µM | TGI [20]: 33.5 µM | GI50 [21]: 64.1 µM | TGI [21]: > 100 µM | GI50 [23]: > 100 µM | TGI [23]: > 100 µM | GI50 [24]: 27.9 µM | TGI [24]: > 100 µM | GI50 [25]: 32.5 µM | TGI [25]: > 100 µM | GI50 [26]: 4.99 µM | TGI [26]: 37.8 µM | GI50 [27]: 21.3 µM | TGI [27]: 64.9 µM | GI50 [28]: 12.8 µM | TGI [28]: 33.8 µM | GI50 [29]: 93 µM | TGI [29]: > 100 µM | GI50 [30]: 12.3 µM | TGI [30]: 40.3 µM | GI50 [31]: 20.4 µM | TGI [31]: 65.4 µM | GI50 [32]: 24.5 µM | TGI [32]: > 100 µM | GI50 [33]: 27 µM | TGI [33]: > 100 µM | GI50 [34]: 26.6 µM | TGI [34]: 68.6 µM | GI50 [35]: 25.3 µM | TGI [35]: 90.5 µM | GI50 [36]: 14.5 µM | TGI [36]: 31.7 µM | GI50 [37]: 10.7 µM | TGI [37]: 30.6 µM | GI50 [38]: 29.2 µM | TGI [38]: 84.1 µM | GI50 [39]: > 100 µM | TGI [39]: > 100 µM | GI50 [57]: 34.9 µM | TGI [57]: > 100 µM | GI50 [40]: 27.6 µM | TGI [40]: 61.8 µM | GI50 [41]: 23.6 µM | TGI [41]: 64.7 µM | GI50 [42]: 34.2 µM | TGI [42]: > 100 µM | GI50 [43]: 18.7 µM | TGI [43]: 43 µM | GI50 [44]: 44.5 µM | TGI [44]: > 100 µM | GI50 [45]: 21.5 µM | TGI [45]: 47.7 µM | GI50 [46]: 56.8 µM | TGI [46]: > 100 µM | GI50 [58]: 52.5 µM | TGI [58]: > 100 µM | GI50 [47]: 1.57 µM | TGI [47]: 4.01 µM | GI50 [48]: 20.7 µM | TGI [48]: > 100 µM | GI50 [49]: 39.7 µM | TGI [49]: > 100 µM | GI50 [50]: 17.5 µM | TGI [50]: 34.9 µM | GI50 [51]: 25.6 µM | TGI [51]: > 100 µM | GI50 [52]: 24.8 µM | TGI [52]: 72.7 µM | GI50 [53]: 19.3 µM | TGI [53]: 53 µM | GI50 [54]: 15.4 µM | TGI [54]: 39.9 µM
